For the assay, the target named is T1, His^B10 anion site of the R6 hexameric aspart (Homo sapiens, UniProt P01308, P52D).
T1 construct: The A-chain is a 21 amino acid peptide and the B-chain is a 30 amino acid peptide
Put plainly: 600 MHz proton NMR of aspart/liraglutide mixtures (R6 hexamer signal of Cys A6 alpha proton at 5.6 ppm). The class given is binding. To be noted: for stabilization of the aspart R6 conformation (NMR resonances between 5 and 6 ppm): ligand at 3 mM added to the aspart/liraglutide mixtures of FIG. 13, FIG. 14, 15. As to the method: Insulin Aspart (B28 Asp human insulin) and liraglutide mixtures were prepared with constant aspart concentration (0.6 mM) and increasing concentration of liraglutide (going from 0 to 2.4 mM). Mixtures are formulated at pH 7.5, 1.6% w/v d-glycerol, 0.3 mM Zn(Ac)2, 30 mM d-phenol (deuterated phenol in order to avoid any proton NMR signal). […] This region of the proton NMR signal only included signals from aspart, no signals from liraglutide were present.
Ligands for the His^B10 anion site of the R6 hexameric aspart entity will stabilize this R6 conformation. Two such ligands were tested under the same conditions as was used in the experiment depicted in FIG. 13 with the addition of ligands at 3 mM concentration.

T1 sequence (P01308 25-54 P52D): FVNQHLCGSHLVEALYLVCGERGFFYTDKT
T1 sequence (P01308 90-110): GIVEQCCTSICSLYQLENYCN

`c1ccc(Cc2nn[nH]n2)cc1` [5-Benzyl-2H-tetrazole]: the “stabilization of the aspart R6 conformation (NMR resonances between 5 and 6 ppm)” value is listed as “stabilized the R6 conformation”.

With `O=C1NC(=O)/C(=C/c2cccc3ccccc23)S1` [5-Naphthalen-1-ylmethylenethiazolidine-2,4-dione], the “stabilization of the aspart R6 conformation (NMR resonances between 5 and 6 ppm)” value was “invariant aspart resonances under increasing liraglutide concentration”. Also, the “tightness of binding to the Zn-binding pocket of aspart, compared” value (ligand at 3 mM, FIG. 15 against FIG. 14) was “binds even tighter than the 5-Benzyl-2H-tetrazole”.

Values taken from US20080280814A1, “Pharmaceutical Compositions Containing Insulin and Insulinotropic Peptide” (Novo Nordisk A/S, priority 2004, published 2008).
